Assays:
HT1080 cells = assay: R3616 viral yield in HT1080 cells with MEK inhibitor PD98059 or DMSO; assay type: cell-based, human; settings: R3616 1 PFU/cell
Protocol: (§1) Inhibitor studies—For experiments employing the known MEK inhibitor, PD98059, HT1080 cells were starved over night in serum-free medium and then exposed to 40 μM of PD98059 (EMD Biosciences, San Diego, Calif.), or DMSO (1:1000 dilution) 6 hours prior to, and during, infection. At 12 hours post-infection, whole cell lysates were created as described above for immunoblotting.
Finally, to determine if MEK inhibition affects viral replication, DMSO or PD98059 (40 μM) was added to replicate cultures of HT1080 cells 6 hours prior to, and during, infection with R3616 (1 PFU/cell). The cells were harvested at 36 hours post-infection and viral yields were measured by plaque assays on Vero cell monolayers.

[1] = test system: HT1080 cells infected with R3616; assay: Immunoblot of viral proteins and phosphorylated PKR in R3616-infected HT1080 cells treated with PD98059; assay type: cell-based, human
Protocol: Immunoblotting—Experiments to analyze the accumulation of viral proteins and phosphorylation of ERK, PKR and eIF-2α were performed on whole-cell lysates harvested on ice at either 12 or 14 hours post-infection with lysis buffer, sonicated for 10 seconds, and clarified by centrifugation. Total protein from the supernatant was quantified by the Bradford method and 20 μg of equilibrated protein was subjected to electrophoresis in 12% or 7.5% (vol/vol) denaturing polyacrylamide gels, transferred to PVDF membranes (Millipore Corporation), blocked, and reacted with primary antibody followed by appropriate secondary antibody.
as §1
To determine if MEK mediates the observed mutant Ras-dependent suppression of PKR activation and resultant accumulation of viral proteins in HT1080 cells infected with mutant virus R3616, the relative expressions of representative α (ICP27), β (UL42) and γ2(glycoprotein C) viral proteins in cells treated with a specific chemical inhibitor of MEK-1 (PD98059) were compared. Replicate cultures of HT1080 cells were serum-starved overnight prior to exposure to equal volumes of DMSO or PD98059 (40 μM) for 6 hours prior to infection with R3616 mutant virus (10 PFU/cell). DMSO or drug treatment was then continued until the cells were harvested at 12 hours post-infection. The cells were then lysed and the lysates were subjected to electrophoresis in denaturing polyacrylamide gels, followed by transferring to PVDF membranes and reacting with antibody to ICP27, UL42, or gC. […] To test whether the decrease in the accumulation of gC correlated with activation of PKR, the electrophoretically separated lysates were also probed with antibody to the auto-phosphorylated form of PKR (P-Thr446).

[2] = PD98059 40 μM, R3616 10 PFU/cell, 12 hours post-infection

COc1cccc(-c2cc(=O)c3ccccc3o2)c1N [PD98059]
yield of R3616 mutant virus in the presence of PD98059 (HT1080 cells; PD98059 40 μM 6 hours prior to and during infection, 36 hours post-infection): 1.67×10^5 PFU/ml | fold lower yield of R3616 with PD98059 than with DMSO (HT1080 cells; PD98059 40 μM, 36 hours): approximately 15 fold | amount of activated PKR (P-Thr446) ([1]; PD98059 40 μM prior to and during infection with R3616): increased the amount of activated PKR | accumulation of ICP27 and UL42 proteins [1, 2]: slight effect | amounts of gC that accumulated [1, 2]: very dramatic decrease
